Read-outs that look alike come from different tables or passages of the source.
What was measured:
[1] = test system: DU145 cells; assay: Antiproliferative assay in DU145 cells, WST-1 cell proliferation assay, 96 hours (GI50); format: cell-based
Experimental: Antiproliferative assays. DU145 cells were seeded into 96 well microtiter plates (5000 cells/well) and treated with […] of compounds or with vehicle control. At 96 hours post-treatment, live cell counts were determined by WST-1 cell proliferation assay (Roche, Penzberg, Germany), as per manufacturer's instructions. Viability results were expressed as a percentage of mean control values resulting in the calculation of the 50% growth inhibition (GI50). All experiments were performed in triplicate.

[2] = Homo sapiens, DU-145, 96 hours post-treatment, triplicate
[3] = 96 hours post-treatment, triplicate, read-out: DU-145 GI50
[4] = 96 hours post-treatment, 50% growth inhibition, read-out: DU-145 GI50
[5] = Homo sapiens, DU-145, 96 hours post-treatment, 50% growth inhibition

| Compound | melting point | GI50 [1, 2] | further results |
| --- | --- | --- | --- |
| COc1cc2c(cc1OCc1ccccc1)CCN(Cc1ccccc1)C2 [compound 2, 2-Benzyl-6-benzyloxy-7-methoxy-1,2,3,4-tetrahydroisoquinoline] | 97 to 98 °C | 50 to 100 µM | – |
| COc1ccc(CN2CCc3cc(OCc4ccccc4)c(OC)cc3C2)cc1 [compound 3, 6-Benzyloxy-7-methoxy-2-(4-methoxybenzyl)-1,2,3,4-tetrahydroisoquinoline] | 96 to 97 °C | 50 to 100 µM | – |
| COc1cccc(CN2CCc3cc(OCc4ccccc4)c(OC)cc3C2)c1 [compound 4, 6-Benzyloxy-7-methoxy-2-(3-methoxybenzyl)-1,2,3,4-tetrahydroisoquinoline] | 71 to 72 °C | 50 to 100 µM | – |
| COc1ccccc1CN1CCc2cc(OCc3ccccc3)c(OC)cc2C1 [compound 5, 6-Benzyloxy-7-methoxy-2-(2-methoxybenzyl)-1,2,3,4-tetrahydroisoquinoline] | 85 to 86 °C | 10 to 50 µM | – |
| COc1cc(CN2CCc3cc(OCc4ccccc4)c(OC)cc3C2)cc(OC)c1 [compound 6, 6-Benzyloxy-2-(3,5-dimethoxybenzyl)-7-methoxy-1,2,3,4-tetrahydroisoquinoline] | 95 to 96 °C | > 100 µM | – |
| COc1cc2c(cc1OCc1ccccc1)CCN(Cc1cccc(C)c1)C2 [compound 7, 6-Benzyloxy-7-methoxy-2-(3-methylbenzyl)-1,2,3,4-tetrahydroisoquinoline] | 81 to 82 °C | > 100 µM | – |
| COc1cc2c(cc1OCc1ccccc1)CCN(Cc1cccc(Oc3ccccc3)c1)C2 [compound 8, 6-Benzyloxy-7-methoxy-2-(3-phenoxybenzyl)-1,2,3,4-tetrahydroisoquinoline] | 111 to 112 °C | > 100 µM | – |
| COc1cc(OC)c(OC)cc1CN1CCc2cc(OCc3ccccc3)c(OC)cc2C1 [compound 17, 6-Benzyloxy-7-methoxy-2-(2,4,5-trimethoxybenzyl)-1,2,3,4-tetrahydroisoquinoline] | 110 to 111 °C | 10 to 50 µM | – |
| COc1cc2c(cc1OCc1ccccc1)CCN(Cc1cc(OC)c(OC)c(OC)c1)C2 [compound 19, 6-Benzyloxy-7-methoxy-2-(3,4,5-trimethoxybenzyl)-1,2,3,4-tetrahydroisoquinoline] | 144 to 145 °C | 10 to 50 µM | – |
| COc1cc2c(cc1OCc1ccccc1)CCN(Cc1cccc(OC)c1OC)C2 [compound 20, 6-Benzyloxy-7-methoxy-2-(2,3-dimethoxybenzyl)-1,2,3,4-tetrahydroisoquinoline] | 106 to 107 °C | 10 to 50 µM | – |
| COc1cc2c(cc1OCc1ccccc1)CCN(Cc1cccc(F)c1)C2 [compound 22, 6-Benzyloxy-2-(3-fluorobenzyl)-7-methoxy-1,2,3,4-tetrahydroisoquinoline] | 77 to 79.5 °C | > 100 µM | – |
| COc1cc2c(cc1OCc1ccccc1)CCN(Cc1cccc(N)c1)C2 [compound 34, 2-(3-Aminobenzyl)-6-(benzyloxy)-7-methoxy-1,2,3,4-tetrahydroisoquinoline] | 114 to 115 °C | > 100 µM | – |
| COc1cc2c(cc1O)CCN(Cc1ccccc1)C2 [compound 38, 2-Benzyl-6-hydroxy-7-methoxy-1,2,3,4-tetrahydroisoquinoline] | 134 to 135 °C | > 100 µM | – |
| COc1ccc(CN2CCc3cc(O)c(OC)cc3C2)cc1 [compound 39, 6-Hydroxy-7-methoxy-2-(4-methoxybenzyl)-1,2,3,4-tetrahydroisoquinoline] | 162 to 163 °C | > 100 µM | – |
| COc1cccc(CN2CCc3cc(O)c(OC)cc3C2)c1 [compound 40, 6-Hydroxy-7-methoxy-2-(3-methoxybenzyl)-1,2,3,4-tetrahydroisoquinoline] | 161 to 162 °C | > 100 µM | – |
| COc1cc2c(cc1O)CCN(Cc1ccccc1OC)C2 [compound 41, 6-Hydroxy-7-methoxy-2-(2-methoxybenzyl)-1,2,3,4-tetrahydroisoquinoline] | 128 to 129 °C | > 100 µM | – |
| COc1cc(CN2CCc3cc(O)c(OC)cc3C2)cc(OC)c1 [compound 42, 6-Hydroxy-2-(3,5-dimethoxybenzyl)-7-methoxy-1,2,3,4-tetrahydroisoquinoline] | 127 to 128 °C | 50 to 100 µM | – |
| COc1cc2c(cc1O)CCN(Cc1cccc(Oc3ccccc3)c1)C2 [compound 43, 6-Hydroxy-7-methoxy-2-(3-phenoxybenzyl)-1,2,3,4-tetrahydroisoquinoline] | 139 to 140 °C | 10 to 50 µM | – |
| COc1cc2c(cc1O)CCN(Cc1cc(OC)c(OC)c(OC)c1)C2 [compound 54, 6-Hydroxy-7-methoxy-2-(3,4,5-trimethoxybenzyl)-1,2,3,4-tetrahydroisoquinoline] | 170 to 171 °C | < 10 µM | – |

| Compound | melting point | GI50 [1, 2] | further results |
| --- | --- | --- | --- |
| COc1ccc(OC)c(CN2CCc3cc(O)c(OC)cc3C2)c1 [compound 55, 6-Hydroxy-7-methoxy-2-(2,5-dimethoxybenzyl)-1,2,3,4-tetrahydroisoquinoline] | 104 to 105 °C | 50 to 100 µM | – |
| COc1cc2c(cc1O)CCN(Cc1cccc(OC)c1OC)C2 [compound 56, 6-Hydroxy-7-methoxy-2-(2,3-dimethoxybenzyl)-1,2,3,4-tetrahydroisoquinoline] | 101 to 102 °C | > 100 µM | – |
| COc1cc2c(cc1O)CCN(Cc1ccc(OC)c(OC)c1)C2 [compound 57, 6-Hydroxy-7-methoxy-2-(3,4-dimethoxybenzyl)-1,2,3,4-tetrahydroisoquinoline] | 146 to 147 °C | > 100 µM | – |
| COc1cc2c(cc1O)CCN(Cc1ccc(OC)c(OC)c1OC)C2 [compound 58, 6-Hydroxy-7-methoxy-2-(2,3,4-trimethoxybenzyl)-1,2,3,4-tetrahydroisoquinoline] | 65 to 66 °C | > 100 µM | – |
| COc1cc2c(cc1O)CCN(Cc1cc(OC)c(OC)cc1OC)C2 [compound 59, 6-Hydroxy-7-methoxy-2-(2,4,5-trimethoxybenzyl)-1,2,3,4-tetrahydroisoquinoline] | 152 to 153 °C | < 10 µM | – |
| COc1cc2c(cc1O)CCN(Cc1cccc(F)c1)C2 [compound 60, 2-(3-Fluorobenzyl)-6-hydroxy-7-methoxy-1,2,3,4-tetrahydroisoquinoline] | 125 to 127 °C | > 100 µM | – |
| COc1cc2c(cc1O)CCN(Cc1cccc(OC(C)C)c1)C2 [compound 61, 2-(3-Isopropoxybenzyl)-6-hydroxy-7-methoxy-1,2,3,4-tetrahydroisoquinoline] | 143 to 146 °C | > 100 µM | – |
| COc1cc2c(cc1OS(N)(=O)=O)CCN(S(=O)(=O)c1ccccc1C#N)C2 [compound 193, 2-(2-Cyano-benzenesulfonyl)-7-methoxy-6-O-sulfamoyl-1,2,3,4-tetrahydroisoquinoline] | – | – | GI50 [1, 3]: < 10 µM |
| COc1cc2c(cc1OS(N)(=O)=O)CCN(S(=O)(=O)c1ccccc1OC)C2 [compound 194, 7-Methoxy-2-(2-methoxy-benzenesulfonyl)-6-O-sulfamoyl-1,2,3,4-tetrahydroisoquinoline] | – | – | GI50 [1, 3]: > 100 µM |
| COc1ccc(S(=O)(=O)N2CCc3cc(OS(N)(=O)=O)c(OC)cc3C2)cc1 [compound 195, 7-Methoxy-2-(4-methoxy-benzenesulfonyl)-6-O-sulfamoyl-1,2,3,4-tetrahydroisoquinoline] | – | – | GI50 [1, 3]: > 100 µM |
| COc1cc2c(cc1OS(N)(=O)=O)CCN(S(=O)(=O)c1ccccc1OC)C2=O [compound 204, 7-Methoxy-2-(2-methoxy-benzenesulfonyl)-6-O-sulfamoyl-3,4-dihydro-2H-isoquinolin-1-one] | – | – | GI50 [1, 4]: > 100 µM |
| COc1cccc(S(=O)(=O)N2CCc3cc(OS(N)(=O)=O)c(OC)cc3C2=O)c1 [compound 205, 7-Methoxy-2-(3-methoxy-benzenesulfonyl)-6-O-sulfamoyl-3,4-dihydro-2H-isoquinolin-1-one] | – | – | GI50 [1, 4]: > 100 µM |
| COc1ccc(S(=O)(=O)N2CCc3cc(OS(N)(=O)=O)c(OC)cc3C2=O)cc1 [compound 206, 7-Methoxy-2-(4-methoxy-benzenesulfonyl)-6-O-sulfamoyl-3,4-dihydro-2H-isoquinolin-1-one] | – | – | GI50 [1, 4]: > 100 µM |
| COc1cc2c(cc1OS(N)(=O)=O)CCN(S(=O)(=O)c1cccc(Cl)c1)C2=O [compound 207, 2-(3-Chloro-benzenesulfonyl)-7-methoxy-6-O-sulfamoyl-3,4-dihydro-2H-isoquinolin-1-one] | – | – | GI50 [1, 4]: > 100 µM |
| COc1cccc(CN2Cc3cc(OC)c(OS(N)(=O)=O)cc3CC2C)c1 (stereo not shown) [compound 220, 2-(3-Methoxybenzyl)-1,2,3,4-tetrahydro-7-methoxy-3-methylisoquinolin-6-O-sulfamate] | – | – | GI50 [1, 4]: < 10 µM |
| COc1cc(CN2Cc3cc(OC)c(OS(N)(=O)=O)cc3CC2C)cc(OC)c1 (stereo not shown) [compound 221, 2-(3,5-dimethoxy-benzyl)-7-methoxy-3-methyl-1,2,3,4-tetrahydro-isoquinolin-6-O-sulfamate] | – | – | GI50 [1, 4]: < 10 µM |
| COc1cc2c(cc1OS(N)(=O)=O)CC(C)N(Cc1cc(OC)c(OC)c(OC)c1)C2 (stereo not shown) [compound 222, 2-(3,4,5-Trimethoxybenzyl)-1,2,3,4-tetrahydro-7-methoxy-3-methylisoquinolin-6-O-sulfamate] | – | – | GI50 [1, 4]: < 10 µM |
| COc1cccc(CN2Cc3cc(OC)c(OS(N)(=O)=O)cc3CC2(C)C)c1 [compound 230, 2-(3-Methoxybenzyl)-1,2,3,4-tetrahydro-7-methoxy-3,3-dimethylisoquinolin-6-yl sulfamate] | – | – | GI50 [1, 5]: > 100 µM |
| COc1cc2c(cc1OS(N)(=O)=O)CC(C)(C)N(Cc1cc(OC)c(OC)c(OC)c1)C2 [compound 231, 2-(3,4,5-Trimethoxybenzyl)-1,2,3,4-tetrahydro-7-methoxy-3,3-dimethylisoquinolin-6-yl sulfamate] | – | – | GI50 [1, 5]: > 100 µM |

Source: patent US8394825B2, “Compound” (Sterix Limited, priority 2007, dated 2013)
